System: rats
Assay: FCA (Freunds Complete Adjuvant) model of inflammatory hypersensitivity to pain (weight bearing)
Assay type: in vivo, rat
Experimental: • Naïve weight bearing readings were taken. The hypersensitivity to pain was measured using the Rat incapacitance tester (Linton instruments). This instrument is serviced once a year and should be regularly calibrated • All rats then received an intraplantar injection of 100 ul of FCA (Freund's complete adjuvant) into the left hind paw. The FCA was sonicated for 15 minutes prior to use. • Approximately 23 hrs after administration of the FCA, pre-dose weight bearing readings were taken. All animals were then ranked and randomised for dosing according to their FCA window (predose difference in grams−naïve difference in grams). […] Celebrex 10 mg/kg p.o. (positive control) as appropriate according to ranking and randomisation. • Animals were assessed in the weight bearing apparatus 1 hour post dose. • The study was blind and randomised by FCA window using the Latin square method. • % reversals were calculated by using the naïve, pre-dose and post dose values as follows: % Reversal=[(Pre-dose−Post-dose)/(Pre-dose−Naïve)]×100 • Graphs and ED50 were calculated where appropriate using Prism4. • Statistical analysis was carried out using ANOVA followed by calculating the least square means using the statistical package Statistica 6.1 • From the dose response curves the ED20 was determined for the combination study • Naïve weight bearing readings were taken. The hypersensitivity to pain was measured using the Rat incapacitance tester (Linton instruments). This instrument is serviced once a year and should be regularly calibrated • All rats then received an intraplantar injection of 100 ul of FCA (Freund's complete adjuvant) into the left hind paw. The FCA was sonicated for 15 minutes prior to use. • Approximately 23 hrs after administration of the FCA, pre-dose weight bearing readings were taken. All animals were then ranked and randomised for dosing according to their FCA window (predose difference in grams−naïve difference in grams). […] See table 5 for details of the groups • Animals were assessed in the weight bearing apparatus 1 hour post dose. • The study was blind and randomised by FCA window using the Latin square method. • % reversals were calculated by using the naïve, pre-dose and post dose values as follows: % Reversal=[(Pre-dose−Post-dose)/(Pre-dose−Naïve)]×100 • Statistical analysis was carried out using ANOVA followed by calculating the least square means using the statistical package Statistica 6.1 • ED50 and ED20 values and graphs were calculated using prism5 • Naïve weight bearing readings were taken. The hypersensitivity to pain was measured using the Rat incapacitance tester (Linton instruments). This instrument is serviced once a year and should be regularly calibrated • All rats then received an intraplantar injection of 100 ul of FCA (Freund's complete adjuvant) into the left hind paw. The FCA was sonicated for 15 minutes prior to use. • Approximately 23 hrs after administration of the FCA, pre-dose weight bearing readings were taken. All animals were then ranked and randomised for dosing according to their FCA window (predose difference in grams—naïve difference in grams). Rats with FCA window less than 30 g were excluded from the study. • Animals were then dosed with the following in a fixed dose ratio of 1.25:1 according to ranking and randomisation. (Table 6) […] Graphs and ED50 were calculated where appropriate using Prism5 • Statistical analysis was carried out using ANOVA followed by calculating the least square means using the statistical package Statistica 6.1

## Nc1nnc(-c2cccc(Cl)c2Cl)c(N)n1 [ENa7, 3,5-diamino-6-(2,3-dichlorophenyl)-1,2,4-triazine, reference compound]
Rattus norvegicus, po, compound alone, 0.1-3.0 mg/kg p.o. as printed, 1 hour post dose, range in brackets as printed, read-out: ED50, reversal of the FCA induced hypersensitivity
  ED50: 0.35 mg/kg
Compound alone, 0.1-3.0 mg/kg, 1 hour post dose
  reversal of the FCA induced hypersensitivity: dose related reversal
Each compound alone at its ED20 dose (ENa7 0.1 mg/kg p.o.; ENK6 0.08 mg/kg s.c.)
  effect on the FCA induced hypersensitivity: no significant effect

Source: patent publication US20100105688A1, “PHARMACEUTICAL COMPOSITIONS COMPRISING 3,5-DIAMINO-6-(2,3-DICHLOPHENYL)-1,2,4-TRIAZINE OR R(-)-2,4-DIAMINO-5-(2,3-DICHLOROPHENYL)-6-FLUOROMETHYL PYRIMIDINE AND AN NK1” (GLAXO GROUP LIMITED, priority 2007, published 2010)
